Data published in patent US11396511B2, “Substituted 9,13b-dihydro-1H-dibenzo[c,f]imidazo[1,5-a]azepin-3-ylbenzamides as anti-inflammatory and analgesic agents” (FRONTBIO CO., LTD., priority 2017, dated 2022).
“And” between values parts separate entries of the source, which are not always exact repeats. Equal values may be shown once.

Experiments:
mice [1] = test: Writhing test (1% acetic acid intraperitoneally); assay type: in vivo; conditions: for numbers of stretching and writhing movements: 30 min pretreatment
Procedure: In accordance with the most common method for measuring the analgesic efficacies of the test substances in the peripheral nerve based on abdominal contraction responses as indices, 1% acetic acid was administered intraperitoneally to mice to induce damage or pain of the abdominal peripheral vessels. After acetic acid administration, the behavioral profiles of the mice were observed and the numbers of stretching and writhing movements of the mice were counted to determine the analgesic efficacies of the test substances.
30 min after pretreatment with the compound 3 (E-S) at concentrations of 10, 20, 40, and 80 mg/kg, writhing test was conducted to assess the analgesic efficacy of the compound 3. As a result, the analgesic efficacy of the compound 3 was concentration-dependent (FIG. 4a and Table 4). The analgesic efficacy of the compound 4 (E-A) was assessed in the same manner as that of the compound 3.

mice [2] = test: Formalin test (5% formalin, hind foot sole); assay type: in vivo; design: formalin test pain response: unit not given beside the values
Procedure: 5% formalin was injected subcutaneously into the soles of the hind feet of mice. The mice licked their soles and shook their paws owing to formalin-induced pain. At 20-40 min post-injection (2nd phase), the mice again licked their soles or shook their paws. Pain felt for 5 min post-injection (1st phase) is the same level as the sensation of pain when the body is harmfully stimulated. Pain between 20 and 40 min (2nd phase) is mainly tonic inflammatory pain and is known to be very similar to pain after a big surgical operation.
30 min after pretreatment with the compound 3 (E-S) at concentrations of 10, 20, 40, and 80 mg/kg, formalin test was conducted to assess the analgesic efficacy of the compound 3. […] The analgesic efficacy of the compound 4 (E-A) was assessed in the same manner as that of the compound 3.

mice [3] = test: Hot-plate test; assay type: in vivo; conditions: for response time to the thermal stimulus (hot-plate): 30 min pretreatment, in s (unit assumed)
Procedure: Hot-plate test was conducted using an electric heater to measure the analgesic activity of the test substances on the acute thermal stimulus. Experimental animals were injected with the test drugs and a vehicle (control) and were sequentially placed on an electric heater (hot-plate). The response time to the thermal stimulus ([…]) was defined as the time until the experimental animal licked their paws. Male mice weighing 22-25 g, aged 4-5 weeks, were used as the test animals (10 per group).
30 min after pretreatment with the compound 3 (E-S) at concentrations of 10, 20, 40, and 80 mg/kg, hot-plate test was conducted to assess the analgesic efficacy of the compound 3. […] The analgesic efficacy of the compound 4 (E-A) was assessed in the same manner as that of the compound 3.

[4] = system: streptozotocin-induced diabetic mice; test: Von-frey test in diabetic neuropathy models; assay type: in vivo; design: threshold values (Von-frey test): unit not given here
Procedure: 65 mg/kg of streptozotocin (Sigma Corp., USA) was dissolved at a concentration of 15 mg/ml in 0.1 M citrate buffer at pH 4.5 and the resulting solution was administered intraperitoneally to mice. Blood glucose levels were measured 1 week after administration and streptozotocin-induced diabetic mice were chosen.
(§1) After damage to the sciatic nerve, allodynia induced by the mechanical stimulus was measured. Mice were housed in acrylic chambers on a steel mesh floor and acclimated for ≥60 min before testing. Continuous responses were evaluated using Von-frey filaments by the up-down method. The filaments were brought into vertical contact with the affected left soles and the contact was maintained for 5-6 sec. The response was considered to be positive when the mouse rapidly avoided the stimulus, startled or licked its sole. The Von-frey filaments were first used to stimulate the mice.
The inhibitory effects of the test substances on pain were determined in diabetic neuropathy models. To this end, after oral administration of each test substance at concentrations of 10, 20, 40, and 80 mg/kg, threshold values were measured at different periods of time through Von-frey test.

[5] = system: monosodium urate (MSU) models; test: Von-frey test in monosodium urate models; assay type: in vivo, mice; design: threshold values (Von-frey test): unit not given here; conditions: monosodium urate model; for threshold values (Von-frey test): basal
Procedure: 100 mg of uric acid and 60 μl of 10 N NaOH were dissolved in 20 ml of distilled water and the pH of the solution was adjusted to 7.2-7.4 with HCl (1 N) at 60° C. After stirring at room temperature for 5 days, the solution was plated in a 1 ml tube and stored for 4 days. The solution was vortexed overnight until needle-like crystals appeared. The solution was washed twice with 100% ethanol and centrifuged at 3000 rpm for 2 min. Finally, the MSU crystals were collected and dissolved in […] of endotoxin-free PBS. The resulting sample were injected intra-articularly into mice (MSU 300 μg/10 μl each) under anesthesia. At 24 h post-injection, pain or ankle swelling were measured to determine the analgesic efficacy of a test substance.
as §1
The analgesic efficacies of the test substances were evaluated in monosodium urate models. To this end, after oral administration of each test substance at concentrations of 10, 20, 40, and 80 mg/kg, threshold values were measured at different periods of time through Von-frey test.

[6] = oral 10, 20, 40, 80 mg/kg tested

SMILES: CC(=O)Oc1ccccc1C(=O)NC1=NCC2c3ccccc3Cc3ccccc3N12 (stereo not drawn) [E-A, 2-((9,13b-dihydro-1H-dibenzo[c,f]imidazo[1,5-a]azepin-3-yl)carbamoyl)phenyl acetate]
- numbers of stretching and writhing movements (mice [1]; 10 mg/kg): 8.25
- numbers of stretching and writhing movements (mice [1]; 20 mg/kg): 13.75
- numbers of stretching and writhing movements (mice [1]; 40 mg/kg): 11.25
- numbers of stretching and writhing movements (mice [1]; 80 mg/kg): 12.25
- concentration of best analgesic efficacy in writhing test (mice [1]; 10, 20, 40, 80 mg/kg tested): 10 mg/kg
- formalin test pain response (mice [2]; 10 mg/kg, first column group (1st phase, not given)): 73.0
- formalin test pain response (mice [2]; 10 mg/kg, second column group (2nd phase, not given)): 102.0
- formalin test pain response (mice [2]; 20 mg/kg, first column group (1st phase, not given)): 54.7
- formalin test pain response (mice [2]; 20 mg/kg, second column group (2nd phase, not given)): 83.5
- formalin test pain response (mice [2]; 40 mg/kg, first column group (1st phase, not given)): 62.0
- formalin test pain response (mice [2]; 40 mg/kg, second column group (2nd phase, not given)): 60.0
- formalin test pain response (mice [2]; 80 mg/kg, first column group (1st phase, not given)): 61.5
- formalin test pain response (mice [2]; 80 mg/kg, second column group (2nd phase, not given)): 60.0
- analgesic efficacy in formalin test (in words) (mice [2]; 10, 20, 40, 80 mg/kg): observed in the 2n^d phase
- response time to the thermal stimulus (hot-plate) (mice [3]; 10 mg/kg): 9.58
- response time to the thermal stimulus (hot-plate) (mice [3]; 20 mg/kg): 14.98
- response time to the thermal stimulus (hot-plate) (mice [3]; 40 mg/kg): 17.42
- response time to the thermal stimulus (hot-plate) (mice [3]; 80 mg/kg): 18.30
- analgesic efficacy in hot-plate test (in words) (mice [3]; 10, 20, 40, 80 mg/kg): observed in the 2nd phase
- threshold values (Von-frey test) ([4]; oral 10 mg/kg, 1 h): 0.260
- threshold values (Von-frey test) ([4]; oral 10 mg/kg, 2 h): 0.263
- threshold values (Von-frey test) ([4]; oral 10 mg/kg, 3 h): 0.324
- threshold values (Von-frey test) ([4]; oral 10 mg/kg, 4 h): 0.286
- threshold values (Von-frey test) ([4]; oral 10 mg/kg, 5 h): 0.225
- threshold values (Von-frey test) ([4]; oral 10 mg/kg, basal): 0.286
- threshold values (Von-frey test) ([4]; oral 20 mg/kg, 1 h): 0.263
- threshold values (Von-frey test) ([4]; oral 20 mg/kg, 2 h): 0.324
- threshold values (Von-frey test) ([4]; oral 20 mg/kg, 3 h): 0.321
- threshold values (Von-frey test) ([4]; oral 20 mg/kg, 4 h): 0.247
- threshold values (Von-frey test) ([4]; oral 20 mg/kg, 5 h): 0.225
- threshold values (Von-frey test) ([4]; oral 20 mg/kg, basal): 0.186
- threshold values (Von-frey test) ([4]; oral 40 mg/kg, 1 h): 0.286
- threshold values (Von-frey test) ([4]; oral 40 mg/kg, 2 h): 0.458
- threshold values (Von-frey test) ([4]; oral 40 mg/kg, 3 h): 0.419
- threshold values (Von-frey test) ([4]; oral 40 mg/kg, 4 h): 0.391
- threshold values (Von-frey test) ([4]; oral 40 mg/kg, 5 h): 0.186
- threshold values (Von-frey test) ([4]; oral 40 mg/kg, basal): 0.247
- threshold values (Von-frey test) ([4]; oral 80 mg/kg, 1 h): 0.391
- threshold values (Von-frey test) ([4]; oral 80 mg/kg, 2 h): 0.391
- threshold values (Von-frey test) ([4]; oral 80 mg/kg, 3 h): 0.247
- threshold values (Von-frey test) ([4]; oral 80 mg/kg, 4 h): 0.286
- threshold values (Von-frey test) ([4]; oral 80 mg/kg, 5 h): 0.186
- threshold values (Von-frey test) ([4]; oral 80 mg/kg, basal): 0.208
- analgesic efficacy, Von-frey test (in words) ([4]; oral 10, 20, 40, 80 mg/kg): concentration-dependent from 1 h after treatment and was maintained until 3 h after treatment
- concentration of highest analgesic efficacy, Von-frey test [4, 6]: 40 mg/kg and 80 mg/kg
- threshold values (Von-frey test) ([5]; oral 10 mg/kg): 0.186
- threshold values (Von-frey test) ([5]; oral 20 mg/kg): 0.208
- threshold values (Von-frey test) ([5]; oral 40 mg/kg): 0.190
- threshold values (Von-frey test) ([5]; oral 80 mg/kg): 0.186
- analgesic efficacy, Von-frey test (in words) ([5]; oral 10, 20, 40, 80 mg/kg): concentration-dependent until 2-3 h after treatment
- concentration of highest analgesic efficacy, Von-frey test [5, 6]: 80 mg/kg
